Consider 1 molecule from ChEMBL document CHEMBL1201861, “Genomics of Drug Sensitity in Cancer screening data, Wellcome Trust Sanger Institute”.

SMILES strings stand for the structures.

As a reminder, the IC50 is the midpoint of a concentration-inhibition curve.

In one test the test system is NCI-H1355. Description: cells. To be noted: Homo sapiens, NCI-H1355. It counts as functional, cell-based, Homo sapiens.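 Note: growth inhibition of human NCI-H1355 cells, read out by a cell viability assay.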
Description: SANGER: Inhibition of human NCI-H1355 cell growth in a cell viability assay.
`C/C(=C\c1csc(C)n1)[C@@H]1C[C@@H]2O[C@]2(C)CCC[C@H](C)[C@H](O)[C@@H](C)C(=O)C(C)(C)[C@@H](O)CC(=O)O1` [PATUPILONE]: 0.915 nM corresponded to half-maximal inhibition (IC50).

Another test relates to NCI-H1838. Put plainly: cells. To be noted: Homo sapiens, NCI-H1838. The test is classed as functional, cell-based, Homo sapiens.
Description: SANGER: Inhibition of human NCI-H1838 cell growth in a cell viability assay.
`C/C(=C\c1csc(C)n1)[C@@H]1C[C@@H]2O[C@]2(C)CCC[C@H](C)[C@H](O)[C@@H](C)C(=O)C(C)(C)[C@@H](O)CC(=O)O1` [PATUPILONE] yielded an IC50 of more than 32 nM.

Another test relates to NCI-H69. Put plainly: cells. It counts as functional, cell-based, Homo sapiens. The following applies: Homo sapiens, NCI-H69.
Description: SANGER: Inhibition of human NCI-H69 cell growth in a cell viability assay.
Turning to `C/C(=C\c1csc(C)n1)[C@@H]1C[C@@H]2O[C@]2(C)CCC[C@H](C)[C@H](O)[C@@H](C)C(=O)C(C)(C)[C@@H](O)CC(=O)O1` [PATUPILONE], 14.8 nM corresponded to half-maximal inhibition (IC50).

The subject of the next test is NEC8. Put plainly: cells. It counts as functional, cell-based, Homo sapiens. The following applies: Homo sapiens, NEC8.
Description: SANGER: Inhibition of human NEC8 cell growth in a cell viability assay.
With `C/C(=C\c1csc(C)n1)[C@@H]1C[C@@H]2O[C@]2(C)CCC[C@H](C)[C@H](O)[C@@H](C)C(=O)C(C)(C)[C@@H](O)CC(=O)O1` [PATUPILONE], half-maximal inhibition (IC50) was put at 3.53 nM.

A further test relates to NOMO-1. Description: cells. The test is classed as functional, cell-based, Homo sapiens. The following applies: Homo sapiens, NOMO-1.
Description: SANGER: Inhibition of human NOMO-1 cell growth in a cell viability assay.
In turn, `C/C(=C\c1csc(C)n1)[C@@H]1C[C@@H]2O[C@]2(C)CCC[C@H](C)[C@H](O)[C@@H](C)C(=O)C(C)(C)[C@@H](O)CC(=O)O1` [PATUPILONE] returned an IC50 of 8.55 nM.

The next test deals with P30-OHK. Put plainly: cells. To be noted: Homo sapiens, P30-OHK. The test is classed as functional, cell-based, Homo sapiens.
Description: SANGER: Inhibition of human P30-OHK cell growth in a cell viability assay.
As for `C/C(=C\c1csc(C)n1)[C@@H]1C[C@@H]2O[C@]2(C)CCC[C@H](C)[C@H](O)[C@@H](C)C(=O)C(C)(C)[C@@H](O)CC(=O)O1` [PATUPILONE], half-maximal inhibition (IC50) was put at 4.49 nM.

A further test concerns QIMR-WIL. Put plainly: cells. To be noted: Homo sapiens, QIMR-WIL. The test is classed as functional, cell-based, Homo sapiens.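 Note: growth inhibition of QIMR-WIL cells, read out with a cell viability assay.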
Description: SANGER: Inhibition of human QIMR-WIL cell growth in a cell viability assay.
As to `C/C(=C\c1csc(C)n1)[C@@H]1C[C@@H]2O[C@]2(C)CCC[C@H](C)[C@H](O)[C@@H](C)C(=O)C(C)(C)[C@@H](O)CC(=O)O1` [PATUPILONE], the half-inhibitory concentration (IC50) was 1.19 nM.

The test system of the next test is RH-1. Description: cells. It counts as functional, cell-based, Homo sapiens. To be noted: Homo sapiens, RH-1.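 Note: growth inhibition of human RH-1 cells, read out with a cell viability assay.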
Description: SANGER: Inhibition of human RH-1 cell growth in a cell viability assay.
Consider `C/C(=C\c1csc(C)n1)[C@@H]1C[C@@H]2O[C@]2(C)CCC[C@H](C)[C@H](O)[C@@H](C)C(=O)C(C)(C)[C@@H](O)CC(=O)O1` [PATUPILONE], for which the IC50 amounted to 0.997 nM.

The test system of the next test is RPMI-8226. Description: cells. It counts as functional, cell-based, Homo sapiens. The following applies: Homo sapiens, RPMI-8226.
Description: SANGER: Inhibition of human RPMI-8226 cell growth in a cell viability assay.
`C/C(=C\c1csc(C)n1)[C@@H]1C[C@@H]2O[C@]2(C)CCC[C@H](C)[C@H](O)[C@@H](C)C(=O)C(C)(C)[C@@H](O)CC(=O)O1` [PATUPILONE]: the IC50 came to 6.71 nM.

The test system of another test is SCH. Put plainly: cells. It counts as functional, cell-based, Homo sapiens. The following applies: Homo sapiens, SCH.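 Note: growth inhibition of human SCH cells, read out in a cell viability assay.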
Description: SANGER: Inhibition of human SCH cell growth in a cell viability assay.
In turn, `C/C(=C\c1csc(C)n1)[C@@H]1C[C@@H]2O[C@]2(C)CCC[C@H](C)[C@H](O)[C@@H](C)C(=O)C(C)(C)[C@@H](O)CC(=O)O1` [PATUPILONE] returned an IC50 of more than 32 nM.

A further test has as its system SF-268. Put plainly: cells. It counts as functional, cell-based, Homo sapiens. The following applies: Homo sapiens, SF-268.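 Note: growth inhibition of SF-268 cells determined with a cell viability assay.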
Description: SANGER: Inhibition of human SF268 cell growth in a cell viability assay.
Molecule `C/C(=C\c1csc(C)n1)[C@@H]1C[C@@H]2O[C@]2(C)CCC[C@H](C)[C@H](O)[C@@H](C)C(=O)C(C)(C)[C@@H](O)CC(=O)O1` [PATUPILONE] yielded a half-maximal inhibitory concentration (IC50) of 4.66 nM.

The next test has as its system SK-N-DZ. Put plainly: cells. The test is classed as functional, cell-based, Homo sapiens. The following applies: Homo sapiens, SK-N-DZ; read-out: IC50.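 Note: growth inhibition of the cancer cell line, read out through a viability assay.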
Description: SANGER: Inhibition of human SK-N-DZ cell growth in a cell viability assay.
For the molecule `C/C(=C\c1csc(C)n1)[C@@H]1C[C@@H]2O[C@]2(C)CCC[C@H](C)[C@H](O)[C@@H](C)C(=O)C(C)(C)[C@@H](O)CC(=O)O1` [PATUPILONE], the half-inhibitory concentration (IC50) is 7.59 nM.

A further test relates to SK-NEP-1. Put plainly: cells. It counts as functional, cell-based, Homo sapiens. To be noted: Homo sapiens, SK-NEP-1.
Description: SANGER: Inhibition of human SK-NEP-1 cell growth in a cell viability assay.
Molecule `C/C(=C\c1csc(C)n1)[C@@H]1C[C@@H]2O[C@]2(C)CCC[C@H](C)[C@H](O)[C@@H](C)C(=O)C(C)(C)[C@@H](O)CC(=O)O1` [PATUPILONE] had a 50% inhibitory concentration (IC50) of 10 nM.

For a further test, the system named is SW872. Put plainly: cells. The test is classed as functional, cell-based, Homo sapiens. The following applies: Homo sapiens, SW872.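 Note: growth inhibition of SW872 cells, read out by a viability assay.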
Description: SANGER: Inhibition of human SW872 cell growth in a cell viability assay.
As for `C/C(=C\c1csc(C)n1)[C@@H]1C[C@@H]2O[C@]2(C)CCC[C@H](C)[C@H](O)[C@@H](C)C(=O)C(C)(C)[C@@H](O)CC(=O)O1` [PATUPILONE], the IC50 was 0.774 nM.

The next test deals with A101D. Put plainly: cells. It counts as functional, cell-based, Homo sapiens. The following applies: Homo sapiens, A101D.
Description: SANGER: Inhibition of human A101D cell growth in a cell viability assay.
Consider `C/C(=C\c1csc(C)n1)[C@@H]1C[C@@H]2O[C@]2(C)CCC[C@H](C)[C@H](O)[C@@H](C)C(=O)C(C)(C)[C@@H](O)CC(=O)O1` [PATUPILONE], for which it took 0.856 nM to reach half-maximal inhibition (IC50).

In another test the test system is A4-Fuk. Description: cells. It counts as functional, cell-based, Homo sapiens. The following applies: Homo sapiens, A4-Fuk.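 Note: growth inhibition of A4-Fuk cells, read out by a cell viability assay.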
Description: SANGER: Inhibition of human A4-Fuk cell growth in a cell viability assay.
In the case of `C/C(=C\c1csc(C)n1)[C@@H]1C[C@@H]2O[C@]2(C)CCC[C@H](C)[C@H](O)[C@@H](C)C(=O)C(C)(C)[C@@H](O)CC(=O)O1` [PATUPILONE], the 50% inhibitory concentration (IC50) turned out to be 1.09 nM.

The next test deals with ATN-1. Description: cells. The test is classed as functional, cell-based, Homo sapiens. The following applies: Homo sapiens, ATN-1.
Description: SANGER: Inhibition of human ATN-1 cell growth in a cell viability assay.
In turn, `C/C(=C\c1csc(C)n1)[C@@H]1C[C@@H]2O[C@]2(C)CCC[C@H](C)[C@H](O)[C@@H](C)C(=O)C(C)(C)[C@@H](O)CC(=O)O1` [PATUPILONE] registered an IC50 of 3.47 nM.

For another test, the system named is BV-173. Put plainly: cells. It counts as functional, cell-based, Homo sapiens. The following applies: Homo sapiens, BV-173.
Description: SANGER: Inhibition of human BV-173 cell growth in a cell viability assay.
As for `C/C(=C\c1csc(C)n1)[C@@H]1C[C@@H]2O[C@]2(C)CCC[C@H](C)[C@H](O)[C@@H](C)C(=O)C(C)(C)[C@@H](O)CC(=O)O1` [PATUPILONE], the IC50 was more than 32 nM.

The next test deals with TE-12. Put plainly: cells. The test is classed as functional, cell-based, Homo sapiens. To be noted: Homo sapiens, TE-12.
Description: SANGER: Inhibition of human TE-12 cell growth in a cell viability assay.
As for `C/C(=C\c1csc(C)n1)[C@@H]1C[C@@H]2O[C@]2(C)CCC[C@H](C)[C@H](O)[C@@H](C)C(=O)C(C)(C)[C@@H](O)CC(=O)O1` [PATUPILONE], inhibition was half-maximal at 5.47 nM (IC50).

The next test deals with TE-8. Put plainly: cells. It counts as functional, cell-based, Homo sapiens. To be noted: Homo sapiens, TE-8.
Description: SANGER: Inhibition of human TE-8 cell growth in a cell viability assay.
The molecule `C/C(=C\c1csc(C)n1)[C@@H]1C[C@@H]2O[C@]2(C)CCC[C@H](C)[C@H](O)[C@@H](C)C(=O)C(C)(C)[C@@H](O)CC(=O)O1` [PATUPILONE] came in with a concentration for half-maximal inhibition (IC50) of 0.111 nM.

A further test deals with U-87 MG. Put plainly: cells. The test is classed as functional, cell-based, Homo sapiens, U-87MG ATCC. The following applies: Homo sapiens, U-87 MG.
Description: SANGER: Inhibition of human U-87-MG cell growth in a cell viability assay.
Regarding `C/C(=C\c1csc(C)n1)[C@@H]1C[C@@H]2O[C@]2(C)CCC[C@H](C)[C@H](O)[C@@H](C)C(=O)C(C)(C)[C@@H](O)CC(=O)O1` [PATUPILONE], the IC50 is 21.8 nM.

For another test, the system named is CAS-1. Put plainly: cells. The test is classed as functional, cell-based, Homo sapiens. To be noted: Homo sapiens, CAS-1.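 Note: growth inhibition of CAS-1 cells, measured with a cell viability assay.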
Description: SANGER: Inhibition of human CAS-1 cell growth in a cell viability assay.
Molecule `C/C(=C\c1csc(C)n1)[C@@H]1C[C@@H]2O[C@]2(C)CCC[C@H](C)[C@H](O)[C@@H](C)C(=O)C(C)(C)[C@@H](O)CC(=O)O1` [PATUPILONE] had an IC50 of 24.5 nM.

In the next test the test system is COLO-320-HSR. Put plainly: cells. The test is classed as functional, cell-based, Homo sapiens. To be noted: Homo sapiens, COLO-320-HSR.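 Note: growth inhibition of COLO-320-HSR cells, determined with a cell viability assay.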
Description: SANGER: Inhibition of human COLO-320-HSR cell growth in a cell viability assay.
For the molecule `C/C(=C\c1csc(C)n1)[C@@H]1C[C@@H]2O[C@]2(C)CCC[C@H](C)[C@H](O)[C@@H](C)C(=O)C(C)(C)[C@@H](O)CC(=O)O1` [PATUPILONE], the half-inhibitory concentration (IC50) worked out at 5.21 nM.

The subject of the next test is COLO-668. Put plainly: cells. The following applies: Homo sapiens, COLO-668. The test is classed as functional, cell-based, Homo sapiens.
Description: SANGER: Inhibition of human COLO-668 cell growth in a cell viability assay.
As for `C/C(=C\c1csc(C)n1)[C@@H]1C[C@@H]2O[C@]2(C)CCC[C@H](C)[C@H](O)[C@@H](C)C(=O)C(C)(C)[C@@H](O)CC(=O)O1` [PATUPILONE], the 50% inhibitory concentration (IC50) was more than 32 nM.
